In patent publication US6358885B1, “Substituted phenylheterocyclic herbicides” (Mississippi State University, priority 1992, dated 2002):

Assays:
lambsquarters = assay: Test B preemergence/postemergence greenhouse plant response rating 0 to 10; type: in vivo, Chenopodium album; settings: 0 to 10 scale
Outline: (§1)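 Planted seeds are treated preemergence with compound dissolved in a non-phytotoxic solvent, while postemergence applications go onto plants of two to eighteen cm. Plants stay in the greenhouse twelve to sixteen days and are then rated visually relative to controls.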

downy brome = assay: Test C preemergence/postemergence greenhouse plant response rating 0 to 100; type: in vivo, Bromus tectorum; settings: POSTEMERGENCE; for Plant response rating Downy Brome: 0 to 100 scale
From the text: (§2) The compounds evaluated in this test were formulated in a non-phytoxic solvent and applied to the soil surface before plant seedlings emerged (preemergence application), to water that covered the soil surface (flood application), and to plants that were in the one-to-four leaf stage (postemergence application). A sandy loam soil was used for the preemergence and postemergence tests, while a silt loam soil was used in the flood test. Water depth was approximately 2.5 cm for the flood test and was maintained at this level for the duration of the test. Plant species in the preemergence and postemergence tests consisted of barley (Hordeum vulgare), bedstraw (Galium aparine), blackgrass (Alopecurus myosuroides), chickweed (Stellaria media), corn (Zea mays), cotton (Gossypium hirsutum), crabgrass (Digitaria sanguinalis), downy brome (Bromus tectorum), giant foxtail (Setaria faberii), lambsquarters (Chenopodium album), morningglory (Ipomoea hederacea), pigweed ([…]), rape (Brassica napus), ryegrass (Lolium multiflorum), sorghum (Sorghum bicolor), soybean (Glycine max), speedwell (Veronica persica), sugar beet (Beta vulgaris), velvetleaf (Abutilon theophrasti), wheat (Triticum aestivum), wild buckwheat (Polygonum convolvulus), and wild oat (Avena fatua). All plant species were planted one day before application of the compound for the preemergence portion-of this test. Plantings of these species were adjusted to produce plants of appropriate size for the post-emergence portion of the test. […] All plant species were grown using normal greenhouse practices. Visual evaluations of injury expressed on treated plants, when compared to untreated controls, were recorded approximately fourteen to twenty one days after application of the test compound. […] A dash (-) response means no test result.

rice = assay: Test C flood test plant response rating 0 to 100; type: in vivo, Oryza sativa; settings: for Plant response rating (0 to 100), Rice Japonica: under POSTEMERGENCE head (flood test species); for Plant response rating Rice Japonica: flood test species listed under POSTEMERGENCE, 0 to 100 scale
From the text: as §2

purple nutsedge = assay: Test B preemergence/postemergence greenhouse plant response rating 0 to 10; type: in vivo, Cyperus rotundus; settings: 0 to 10 scale
Outline: as §1

barnyardgrass [1] = assay: Test C flood test plant response rating 0 to 100; type: in vivo, Echinochloa crus-galli; settings: for Plant response rating (0 to 100), Barnyardgrass 2: under POSTEMERGENCE head (flood test species); for Plant response rating Barnyardgrass 2: flood test species listed under POSTEMERGENCE, 0 to 100 scale
From the text: as §2

crabgrass = assay: Test B preemergence/postemergence greenhouse plant response rating 0 to 10; type: in vivo, Digitaria spp.; settings: 0 to 10 scale
Outline: as §1

wild oat [2] = assay: as above; type: in vivo, Avena fatua; settings: 0 to 10 scale
Outline: as §1

rape = assay: Test C preemergence/postemergence greenhouse plant response rating 0 to 100; type: in vivo, Brassica napus; settings: POSTEMERGENCE; for Plant response rating, Rape: 0 to 100 scale
From the text: as §2

cotton = assay: as above; type: in vivo, Gossypium hirsutum; settings: POSTEMERGENCE; for Plant response rating, Cotton: 0 to 100 scale
From the text: as §2

soybean = assay: as above; type: in vivo, Glycine max; settings: POSTEMERGENCE; for Plant response rating, Soybean: 0 to 100 scale
From the text: as §2

wild buckwheat = assay: Test B preemergence/postemergence greenhouse plant response rating 0 to 10; type: in vivo, Polygonum convolvulus; settings: 0 to 10 scale
Outline: as §1

giant foxtail [3] = assay: as above; type: in vivo, Setaria faberii; settings: 0 to 10 scale
Outline: as §1

giant foxtail [4] = assay: Test C preemergence/postemergence greenhouse plant response rating 0 to 100; type: in vivo, Setaria faberii; settings: POSTEMERGENCE; for Plant response rating, Giant foxtail: 0 to 100 scale
From the text: as §2

chickweed = assay: as above; type: in vivo, Stellaria media; settings: POSTEMERGENCE; for Plant response rating, Chickweed: 0 to 100 scale
From the text: as §2

wild oat [5] = assay: as above; type: in vivo, Avena fatua; settings: POSTEMERGENCE; for Plant response rating, Wild oat: 0 to 100 scale
From the text: as §2

umbrella sedge = assay: Test C flood test plant response rating 0 to 100; type: in vivo, Cyperus difformis; settings: for Plant response rating (0 to 100), Umbrella sedge: under POSTEMERGENCE head (flood test species); for Plant response rating Umbrella sedge: flood test species listed under POSTEMERGENCE, 0 to 100 scale
From the text: as §2

cocklebur = assay: Test B preemergence/postemergence greenhouse plant response rating 0 to 10; type: in vivo, Xanthium pensylvanicum; settings: 0 to 10 scale
Outline: as §1

barnyardgrass [6] = assay: as above; type: in vivo, Echinochloa crus-galli; settings: 0 to 10 scale
Outline: as §1

CCOC(=O)COc1cc(-c2nn3c(c2Cl)CCCC3)c(F)cc1Cl [Compound 42]
Plant response rating, Lambsquarter (lambsquarters; POSTEMERGENCE, Rate 50 g/ha): 9 | Plant response rating, Lambsquarter (lambsquarters; PREEMERGENCE, Rate 50 g/ha): 9 | Plant response rating, Lambsquarter (lambsquarters; Rate 200 g/ha, POSTEMERGENCE): 10 | Plant response rating, Lambsquarter (lambsquarters; Rate 200 g/ha, PREEMERGENCE): 10 | Plant response rating Downy Brome (downy brome; 62 g/ha): 30 | Plant response rating Downy Brome (downy brome; 125 g/ha): 50 | Plant response rating (0 to 100), Downy Brome (downy brome; Rate 16 g/ha): 20 | Plant response rating (0 to 100), Downy Brome (downy brome; Rate 31 g/ha): 30 | Plant response rating (0 to 100), Rice Japonica (rice; Rate 16 g/ha): 0 | Plant response rating (0 to 100), Rice Japonica (rice; Rate 31 g/ha): 10 | Plant response rating Rice Japonica (rice; 62 g/ha): 20 | Plant response rating Rice Japonica (rice; 125 g/ha): 40 | Plant response rating, Nutsedge (purple nutsedge; POSTEMERGENCE, Rate 50 g/ha): 2 | Plant response rating, Nutsedge (purple nutsedge; PREEMERGENCE, Rate 50 g/ha): 0 | Plant response rating, Nutsedge (purple nutsedge; Rate 200 g/ha, POSTEMERGENCE): 5 | Plant response rating, Nutsedge (purple nutsedge; Rate 200 g/ha, PREEMERGENCE): 0 | Plant response rating (0 to 100), Barnyardgrass 2 (barnyardgrass [1]; Rate 16 g/ha): 0 | Plant response rating (0 to 100), Barnyardgrass 2 (barnyardgrass [1]; Rate 31 g/ha): 20 | Plant response rating Barnyardgrass 2 (barnyardgrass [1]; 62 g/ha): 40 | Plant response rating Barnyardgrass 2 (barnyardgrass [1]; 125 g/ha): 60 | Plant response rating, Crabgrass (crabgrass; POSTEMERGENCE, Rate 50 g/ha): 2 | Plant response rating, Crabgrass (crabgrass; POSTEMERGENCE, Rate 200 g/ha): 3 | Plant response rating, Crabgrass (crabgrass; PREEMERGENCE, Rate 50 g/ha): 0 | Plant response rating, Crabgrass (crabgrass; Rate 200 g/ha, PREEMERGENCE): 0 | Plant response rating, Wild oat (wild oat [2]; POSTEMERGENCE, Rate 50 g/ha): 1 | Plant response rating, Wild oat (wild oat [2]; PREEMERGENCE, Rate 50 g/ha): 0 | Plant response rating, Wild oat (wild oat [2]; Rate 200 g/ha, POSTEMERGENCE): 3 | Plant response rating, Rape (rape; 62 g/ha): 95 | Plant response rating, Rape (rape; 125 g/ha): 100 | Plant response rating (0 to 100), Rape (rape; Rate 16 g/ha): 50 | Plant response rating (0 to 100), Rape (rape; Rate 31 g/ha): 70 | Plant response rating, Cotton (cotton; 62 g/ha): 100 | Plant response rating, Cotton (cotton; 125 g/ha): 100 | Plant response rating (0 to 100), Cotton (cotton; Rate 16 g/ha): 100 | Plant response rating (0 to 100), Cotton (cotton; Rate 31 g/ha): 100 | Plant response rating, Soybean (soybean; 62 g/ha): 60 | Plant response rating, Soybean (soybean; 125 g/ha): 80 | Plant response rating (0 to 100), Soybean (soybean; Rate 16 g/ha): 20 | Plant response rating (0 to 100), Soybean (soybean; Rate 31 g/ha): 40 | Plant response rating, Wild buckwheat (wild buckwheat; POSTEMERGENCE, Rate 50 g/ha): 9 | Plant response rating, Wild buckwheat (wild buckwheat; PREEMERGENCE, Rate 50 g/ha): 0 | Plant response rating, Wild buckwheat (wild buckwheat; Rate 200 g/ha, POSTEMERGENCE): 9 | Plant response rating, Wild buckwheat (wild buckwheat; Rate 200 g/ha, PREEMERGENCE): 7 | Plant response rating, Giant foxtail (giant foxtail [3]; POSTEMERGENCE, Rate 50 g/ha): 3 | Plant response rating, Giant foxtail (giant foxtail [3]; PREEMERGENCE, Rate 50 g/ha): 0 | Plant response rating, Giant foxtail (giant foxtail [3]; Rate 200 g/ha, POSTEMERGENCE): 4 | Plant response rating, Giant foxtail (giant foxtail [3]; Rate 200 g/ha, PREEMERGENCE): 0 | Plant response rating, Giant foxtail (giant foxtail [4]; 62 g/ha): 50 | Plant response rating, Giant foxtail (giant foxtail [4]; 125 g/ha): 70 | Plant response rating (0 to 100), Giant foxtail (giant foxtail [4]; Rate 16 g/ha): 30 | Plant response rating (0 to 100), Giant foxtail (giant foxtail [4]; Rate 31 g/ha): 30 | Plant response rating, Chickweed (chickweed; 62 g/ha): 50 | Plant response rating, Chickweed (chickweed; 125 g/ha): 60 | Plant response rating (0 to 100), Chickweed (chickweed; Rate 16 g/ha): 20 | Plant response rating (0 to 100), Chickweed (chickweed; Rate 31 g/ha): 40 | Plant response rating, Wild oat (wild oat [5]; 62 g/ha): 30 | Plant response rating, Wild oat (wild oat [5]; 125 g/ha): 30 | Plant response rating (0 to 100), Wild oat (wild oat [5]; Rate 16 g/ha): 10 | Plant response rating (0 to 100), Wild oat (wild oat [5]; Rate 31 g/ha): 10 | Plant response rating (0 to 100), Umbrella sedge (umbrella sedge; Rate 16 g/ha): 0 | Plant response rating (0 to 100), Umbrella sedge (umbrella sedge; Rate 31 g/ha): 10 | Plant response rating Umbrella sedge (umbrella sedge; 62 g/ha): 70 | Plant response rating Umbrella sedge (umbrella sedge; 125 g/ha): 90 | Plant response rating, Cocklebur (cocklebur; POSTEMERGENCE, Rate 50 g/ha): 10 | Plant response rating, Cocklebur (cocklebur; POSTEMERGENCE, Rate 200 g/ha): 10 | Plant response rating, Cocklebur (cocklebur; PREEMERGENCE, Rate 50 g/ha): 0 | Plant response rating, Cocklebur (cocklebur; Rate 200 g/ha, PREEMERGENCE): 0 | Plant response rating, Barnyardgrass (barnyardgrass [6]; POSTEMERGENCE, Rate 50 g/ha): 5 | Plant response rating, Barnyardgrass (barnyardgrass [6]; POSTEMERGENCE, Rate 200 g/ha): 8 | Plant response rating, Barnyardgrass (barnyardgrass [6]; PREEMERGENCE, Rate 50 g/ha): 0 | Plant response rating, Barnyardgrass (barnyardgrass [6]; Rate 200 g/ha, PREEMERGENCE): 0
